Legend:
human ERβ = biological target: T1, human ERβ (Homo sapiens, UniProt Q92731); assay: Competition with [3H]-17β-estradiol for ERβ ligand binding domain; conditions: E. coli lysate expressing ER ligand binding domains (D, E, & F); 2 nM [3H]-17β-estradiol; 5-15 hours at room temperature
T1 construct: made in house; host or cells: E. coli (crude lysate)
Protocol: (§1) This test procedure provides the methodology for one to determine whether a particular compound binds to the ER (and is therefore, “estrogenic”) and whether there is selectivity for ERα or ERβ. […] The procedure used is described briefly below. A crude lysate of E. coli expressing the ER ligand binding domains (D, E, & F) of human ERα or ERβ was prepared. Both ERs and compounds were diluted in 1× Dulbecco's Phosphate Buffered Saline (DPBS) supplemented with 1 mM EDTA. […] After between 5 and 15 hours at room temperature, the plates were washed with DPBS/1 mM EDTA and bound radioactivity determined by liquid scintillation counting.

human ERα = biological target: T2, human ERα (Homo sapiens, UniProt P03372); assay: Competition with [3H]-17β-estradiol for ERα ligand binding domain; conditions: E. coli lysate expressing ER ligand binding domains (D, E, & F); 2 nM [3H]-17β-estradiol; 5-15 hours at room temperature
T2 construct: made in house; host or cells: E. coli (crude lysate)
T2 sequence (P03372 311-547 limits assumed): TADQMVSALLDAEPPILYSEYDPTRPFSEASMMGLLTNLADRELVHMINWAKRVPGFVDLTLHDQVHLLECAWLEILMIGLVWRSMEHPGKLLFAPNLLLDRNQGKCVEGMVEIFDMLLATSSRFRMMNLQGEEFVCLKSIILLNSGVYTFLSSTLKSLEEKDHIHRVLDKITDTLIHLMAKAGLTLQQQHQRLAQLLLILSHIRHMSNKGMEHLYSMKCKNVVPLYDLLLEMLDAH
Protocol: as §1

T1 sequence (Q92731 264-498 limits assumed): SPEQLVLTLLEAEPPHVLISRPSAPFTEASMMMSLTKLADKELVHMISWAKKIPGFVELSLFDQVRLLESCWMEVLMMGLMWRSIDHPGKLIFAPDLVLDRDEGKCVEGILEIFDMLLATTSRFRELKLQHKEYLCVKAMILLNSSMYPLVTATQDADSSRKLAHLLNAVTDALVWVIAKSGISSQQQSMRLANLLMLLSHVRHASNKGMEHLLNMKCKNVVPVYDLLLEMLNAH

## Oc1ccc2c(c1)oc1c3ccc(O)cc3c(Br)cc21 [Example 3, 5-BROMO-BENZO[B]NAPHTHO[2,1-D]FURAN-3,9-DIOL]
Human ERβ
  IC50: 12 nM
Human ERα
  IC50: 70 nM

## N#Cc1cc(O)cc2c3c(oc12)-c1ccc(O)cc1CC3 [Example 4, 3,8-DIHYDROXY-5,6-DIHYDRO-BENZO[B]NAPHTHO[2,1-D]FURAN-10-CARBONITRILE]
Human ERβ
  IC50: 1.2 nM
Human ERα
  IC50: 150 nM
other
  melting point: 355 to 358 °C

## 2,9-DIHYDROXY-5,6-DIHYDRO-BENZO[B]NAPHTHO[2,1-D]FURAN-10-BENZONITRILE [Example 12]
Human ERβ
  IC50: 757 nM
Human ERα
  IC50: 2790 nM

## Oc1ccc2c(c1)OCc1c-2oc2ccc(O)cc12 [Example 9, 6H-BENZO[4,5]FURO[3,2-C]CHROMEN-3,8-DIOL]
Human ERβ
  IC50: 4 nM
Human ERα
  IC50: 129 nM

## N#Cc1cc(O)cc2c3c(oc12)-c1ccc(O)cc1CCC3 [Example 5, 3,9-DIHYDROXY-6,7-DIHYDRO-5H-12-OXA-DIBENZO[A,E]AZULEN-11-CARBONITRILE]
Human ERβ
  IC50: 17 nM
Human ERα
  IC50: 1500 nM

## Oc1ccc2c(c1)OCc1c-2oc2c(Br)cc(O)cc12 [Example 11, 10-BROMO-6H-BENZO[4,5]FURO[3,2-C]CHROMENE-3,8-DIOL]
Human ERβ
  IC50: 1 nM
Human ERα
  IC50: 42 nM

## N#Cc1c(O)ccc2c1oc1c3cc(O)ccc3ccc21 [Example 13, 2,9-DIHYDROXY-BENZO[B]NAPHTHO[2,1-D]FURAN-10-CARBONITRILE]
other
  melting point: 291 to 295 °C

## N#Cc1c(O)ccc2c1oc1c3ccc(O)cc3ccc21 [Example 7, 3,9-DIHYDROXY-BENZO[B]NAPHTHO[2,1-D]FURAN-10-CARBONITRILE]
Human ERβ
  IC50: 3 nM
Human ERα
  IC50: 55 nM
other
  melting point: > 300 °C

## Oc1ccc2c(c1)CCc1c-2oc2cc(O)ccc12 [Example 1, 5,6-DIHYDRO-BENZO[B]NAPHTHO[2,1-D]FURAN-3,9-DIOL]
Human ERβ
  IC50: 3 nM
Human ERα
  IC50: 18 nM

## N#Cc1cc(O)cc2c3c(oc12)-c1ccc(O)cc1OC3 [Example 10, 3,8-DIHYDROXY-6H-BENZO[4,5]FURO[3,2-C]CHROMENE-10-CARBONITRILE]
Human ERβ
  IC50: 2 nM
Human ERα
  IC50: 159 nM

## N#Cc1c(O)ccc2c3c(oc12)-c1ccc(O)cc1CC3 [Example 6, 3,9-DIHYDROXY-5,6-DIHYDRO-BENZO[B]NAPHTHO[2,1-D]FURAN-10-CARBONITRILE]
Human ERβ
  IC50: 5 nM
Human ERα
  IC50: 82 nM
other
  melting point: > 300 °C

## Oc1ccc2c(ccc3c4ccc(O)cc4oc23)c1 [Example 2, BENZO[B]NAPHTHO[2,1-D]FURAN-3,9-DIOL]
Human ERβ
  IC50: 1 nM
Human ERα
  IC50: 12 nM
